According to article PMC9837764 (Nature Communications, 2023):
Where “and” joins values, the source holds several entries; their conditions need not be identical. Equal entries are not always repeated. Where two headings read alike, the source gives them in different places.

Legend:
SARS-CoV-2 [1] = test: Genomic and subgenomic viral RNA in infected Calu-3 cells (RT-PCR); assay type: cell-based; settings: Calu-3, 10 µM, 48 h
IL-6 = IL-6 in supernatant of SARS-CoV-2-infected human primary monocytes; assay type: cell-based; settings: infected monocytes, drugs at 10 µM, 24 h
Protocol: Human primary monocytes were obtained after 3 h of plastic adherence of peripheral blood mononuclear cells (PBMCs). The use of primary human cell was approved by Institutional Review Board from the Oswaldo Cruz Foundation under protocol 49971421.8.0000.5248 with signed informed consent in accordance with the Hemotherapy Service of Hospital Clementino Fraga from the Federal University of Rio de Janeiro. All volunteers were de-identified. PBMCs were isolated from healthy donors by density gradient centrifugation (Ficoll-Paque, GE Healthcare). PBMCs (2.0 × 10^6 cells) were plated onto 48-well plates (NalgeNunc) in RPMI-1640 without serum for 2–4 h. Nonadherent cells were removed, and the remaining monocytes were maintained in DMEM with 5% human serum (HS; Millipore) and penicillin/streptomycin. The purity of human monocytes was above 95%, as determined by flow cytometric analysis (FACScan; Becton Dickinson) using anti-CD3 (BD Biosciences, cat # 555342, 1:40), anti-CD16 (Southern Biotech, cat # 561313, 1:20) and APC mouse IgG2a isotype (BD Biosciences, cat # 550882, 1/40) and PE mouse IgG1 isotype (BD Biosciences, 555749, 1/20).

SARS-CoV-2 [2] = test: Combination of RdRp inhibitors with SARS-CoV-2 nsp14 inhibitors in infected Calu-3 cells, synergy; assay type: cell-based; settings: for Response (Fig3C source data for synergy analysis): DTG 0 nM
[3] = male, Sprague-Dawley, rat, in vivo, 250 mg/kg
SARS-CoV-2 gamma VoC [4] = tested on: SARS-CoV-2 gamma VoC; set-up: species or system K18-hACE2 mice (Mus musculus); settings: mouse, in vivo, 140 mg/kg/day
[5] = tested on: Salmonella typhimurium TA 102; test: Ames test, strain TA 102
[6] = tested on: Salmonella typhimurium TA 97a; test: Ames test, strain TA 97a
[7] = tested on: Salmonella typhimurium TA 98; test: Ames test, strain TA 98
SARS-CoV-2 gamma VoC [8] = tested on: SARS-CoV-2 gamma VoC; set-up: species or system K18-hACE2 mice (Mus musculus); settings: mouse, in vivo
[9] = Pharmacokinetics in mouse plasma; assay type: in vivo, CD1 mice (Mus musculus); set-up: MB-905 level (Fig5A): unit not given here; settings: for MB-905 level (Fig5A): individual animals; for k el: read-out: Ke (converted)
SARS-CoV-2 Gamma VoC [10] = tested on: SARS-CoV-2 Gamma VoC; set-up: species or system Syrian hamsters (Mesocricetus auratus); settings: hamster, in vivo, 140 mg/kg
[11] = infected Calu-3, compound alone at 10 uM
[12] = both sexes, CD1, mouse, plasma, iv, mice, 3 mg/kg (i.v.)
[13] = both sexes, CD1, mouse, plasma, po, mice, 30 mg/kg (p.o.)
[14] = both sexes, CD1, mouse, plasma, po, mice, 550 mg/kg (p.o.)

c1coc(CNc2ncnc3[nH]cnc23)c1 [MB-905, N6-furfurylaminopurine]
Genomic viral RNA (Fig2B source data, replicates) (SARS-CoV-2 [1]): 0.2 and 0.15 and 0.1
Subgenomic viral RNA (Fig2B source data, replicates) (SARS-CoV-2 [1]): 0.6 and 0.5 and 0.7
IL-6 levels in the culture supernatant (Fig1E source data, per donor) (IL-6): 1.3 and 0.5 and 1.0 and 2.4 and 0.8 and 1.4 and 2.3
Response (Fig3C source data for synergy analysis) (SARS-CoV-2 [2]; MB-905 10 nM): 8
Response (Fig3C source data for synergy analysis) (SARS-CoV-2 [2]; MB-905 100 nM): 17
Response (Fig3C source data for synergy analysis) (SARS-CoV-2 [2]; MB-905 1000 nM): 44
Response (Fig3C source data for synergy analysis) (SARS-CoV-2 [2]; MB-905 10000 nM): 89
EC50 (SARS-CoV-2 [2]; Severe acute respiratory syndrome coronavirus 2, Calu-3, read-out: EC50 mean): 0.3 µM
EC90 (SARS-CoV-2 [2]; Severe acute respiratory syndrome coronavirus 2, Calu-3, read-out: EC90 mean): 8 µM
Virus productive titers (Fig3A source data, replicates) (SARS-CoV-2 [2]; [11]): 60000 and 46000 and 56000
Virus productive titers (Fig3B source data, replicates) (SARS-CoV-2 [2]; [11]): 60000 and 46000 and 52000
Tolerability [3]: tolerated MB-905 well
Infectious titers in lungs (SARS-CoV-2 gamma VoC [4]): decreased significantly
Virus RNA levels from lung extracts (SARS-CoV-2 gamma VoC [4]): did not alter
Mutagenicity TA 102 +S9 ([5]; 8 µg/mL): -
Mutagenicity TA 102 -S9 ([5]; 8 µg/mL): -
Mutagenicity TA 102 +S9 ([5]; 40 µg/mL): -
Mutagenicity TA 102 -S9 ([5]; 40 µg/mL): -
Mutagenicity TA 102 +S9 ([5]; 200 µg/mL): -
Mutagenicity TA 102 -S9 ([5]; 200 µg/mL): -
Mutagenicity TA 102 +S9 ([5]; 1,000 µg/mL): -
Mutagenicity TA 102 -S9 ([5]; 1,000 µg/mL): -
Mutagenicity TA 102 +S9 ([5]; 5,000 µg/mL): -
Mutagenicity TA 102 -S9 ([5]; 5,000 µg/mL): -
Mutagenicity TA 97a +S9 ([6]; 8 µg/mL): -
Mutagenicity TA 97a -S9 ([6]; 8 µg/mL): -
Mutagenicity TA 97a +S9 ([6]; 40 µg/mL): -
Mutagenicity TA 97a -S9 ([6]; 40 µg/mL): -
Mutagenicity TA 97a +S9 ([6]; 200 µg/mL): -
Mutagenicity TA 97a -S9 ([6]; 200 µg/mL): -
Mutagenicity TA 97a +S9 ([6]; 1,000 µg/mL): -
Mutagenicity TA 97a -S9 ([6]; 1,000 µg/mL): -
Mutagenicity TA 97a +S9 ([6]; 5,000 µg/mL): -
Mutagenicity TA 97a -S9 ([6]; 5,000 µg/mL): -
Ames test ([6]; all strains of Supplementary Table 3): negative
Mutagenicity TA 98 +S9 ([7]; 8 µg/mL): -
Mutagenicity TA 98 -S9 ([7]; 8 µg/mL): -
Mutagenicity TA 98 +S9 ([7]; 40 µg/mL): -
Mutagenicity TA 98 -S9 ([7]; 40 µg/mL): -
Mutagenicity TA 98 +S9 ([7]; 200 µg/mL): -
Mutagenicity TA 98 -S9 ([7]; 200 µg/mL): -
Mutagenicity TA 98 +S9 ([7]; 1,000 µg/mL): -
Mutagenicity TA 98 -S9 ([7]; 1,000 µg/mL): -
Mutagenicity TA 98 +S9 ([7]; 5,000 µg/mL): -
Mutagenicity TA 98 -S9 ([7]; 5,000 µg/mL): -
survival event code per animal (Fig5D) (SARS-CoV-2 gamma VoC [8]): 1 (4×) and 0 (2×)
Body weight (SARS-CoV-2 gamma VoC [8]; 140 mg/kg/day): recovered their body weight
Survival (SARS-CoV-2 gamma VoC [8]; 140 mg/kg/day): survived after two weeks
MB-905 level (Fig5A) ([9]; 140 mg/kg, 0.25 h): 544 and 555 and 638
MB-905 level (Fig5A) ([9]; 140 mg/kg, 1 h): 356 and 299 and 551
MB-905 level (Fig5A) ([9]; 140 mg/kg, 3 h): 447 and 177 and 154
MB-905 level (Fig5A) ([9]; 140 mg/kg, 8 h): 105 and 316 and 50
MB-905 level (Fig5A) ([9]; 140 mg/kg, 12 h): 0
MB-905 level (Fig5A) ([9]; 500 mg/kg, 0.25 h): 1228 and 1306 and 1348
MB-905 level (Fig5A) ([9]; 500 mg/kg, 1 h): 1348 and 946 and 1312
MB-905 level (Fig5A) ([9]; 500 mg/kg, 3 h): 894 and 544 and 652
MB-905 level (Fig5A) ([9]; 500 mg/kg, 8 h): 833 and 340 and 437
MB-905 level (Fig5A) ([9]; 500 mg/kg, 12 h): 103 and 13 and 0
AUC [9, 12]: 66.4 ng·h/mL
AUC(0-t) [9, 12]: 55.5 ng·h/mL
Cmax [9, 12]: 155 ng/mL
Tmax [9, 12]: 4.98 min
clearance [9, 12]: 918 mL/min/kg
half-life [9, 12]: 13.2 min
k el [9, 12]: 0.000858 s⁻¹
Vd ([9]; both sexes, CD1, mouse, plasma, iv, mice, 3 mg/kg (i.v.), read-out: Vz): 19 L/kg
bioavailability ([9]; both sexes, CD1, mouse, plasma, po, 30 mg/kg, mice, 30 mg/kg (p.o.), read-out: F): 53.5%
bioavailability ([9]; both sexes, CD1, mouse, plasma, po, 30 mg/kg, mice, read-out: Oral bioavailability): > 50%
bioavailability ([9]; both sexes, CD1, mouse, plasma, po, 550 mg/kg, mice, 550 mg/kg (p.o.), read-out: F): 36.1%
AUC [9, 13]: 356 ng·h/mL
AUC(0-t) [9, 13]: 356 ng·h/mL
Cmax [9, 13]: 570 ng/mL
Tmax [9, 13]: 4.98 min
half-life [9, 13]: 66.6 min
k el [9, 13]: 0.000172 s⁻¹
AUC [9, 14]: 4390 ng·h/mL
AUC(0-t) [9, 14]: 4390 ng·h/mL
Cmax [9, 14]: 1050 ng/mL
Tmax [9, 14]: 30 min
half-life [9, 14]: 163 min
k el [9, 14]: 6.94e-05 s⁻¹
CL ([9]; mice, 30 mg/kg (p.o.)): 1060.15 mL/min/kg
Vz ([9]; mice, 30 mg/kg (p.o.)): 102.21 L/kg
CL ([9]; mice, 550 mg/kg (p.o.)): 1843.18 mL/min/kg
Vz ([9]; mice, 550 mg/kg (p.o.)): 434.2 L/kg
Lung injury (SARS-CoV-2 Gamma VoC [10]): protected this organ
